What was measured:
3D7 P. falciparum strain = experiment: parasite proliferation assay in infected red blood cells (SYBR Green I); type: cell-based, Plasmodium falciparum; conditions: Plasmodium falciparum, 3D7, Erythrocyte, 3D7 strain; read-out: EC50 3D7 strain
In short: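 P. falciparum 3D7 grown in O+ human erythrocytes to 3–8% parasitemia and exposed to compounds. Proliferation read as the increase in parasite DNA. Detection used SYBR Green I in saponin/triton-X/EDTA lysis buffer, with overnight lysis at room temperature.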

W2 strain = experiment: parasite proliferation assay in infected red blood cells (SYBR Green I), W2 strain; type: cell-based; conditions: Plasmodium falciparum, Erythrocyte
Excerpt: Compounds of the invention can be assayed to measure their capacity to inhibit proliferation of parasitemia in infected red blood cells. The proliferation is quantified by the addition of SYBR Green I (INVITROGEN)® dye which has a high affinity for double stranded DNA.

SMILES	EC50 (3D7 P. falciparum strain) [µM]	EC50 (W2 strain) [µM]
CC1(C)c2nc(-c3ccc(F)cc3)c(Nc3ccc(F)c(C(F)(F)F)c3)n2CCN1C(=O)CN [Compound 657]	0.618	1.09
CC1(C)c2nc(-c3ccc(F)cc3)c(Nc3ccc(C(F)(F)F)c(Cl)c3)n2CCN1C(=O)CN [Compound 658]	0.005	0.006
Cc1cc(Nc2c(-c3ccc(F)cc3)nc3n2CCN(C(=O)CN)C3(C)C)ccc1Cl [Compound 659]	4.39	5.28
CC1(C)c2nc(-c3ccc(F)cc3)c(NC3CCC(F)(F)CC3)n2CCN1C(=O)CN [Compound 660]	0.003	0.006
CC1(C)c2nc(-c3ccc(F)cc3)c(NC3CCC(c4ccccc4)CC3)n2CCN1C(=O)CN (stereo not shown) [Compound 661]	0.339	0.52
CC1(C)c2nc(-c3ccc(F)cc3)c(NC3CCC(C(F)(F)F)CC3)n2CCN1C(=O)CN (stereo not shown) [Compound 662]	0.038	0.033
CC(C)(C)C1CCC(Nc2c(-c3ccc(F)cc3)nc3n2CCN(C(=O)CN)C3(C)C)CC1 (stereo not shown) [Compound 663]	1.06	1.66
CC1CCCCC1Nc1c(-c2ccc(F)cc2)nc2n1CCN(C(=O)CN)C2(C)C (stereo not shown) [Compound 664]	3.69	4.08
CC1(C)c2nc(-c3ccc(F)cc3)c(NC3CCCCCC3)n2CCN1C(=O)CN [Compound 665]	0.102	0.069
CC1CC(Nc2c(-c3ccc(F)cc3)nc3n2CCN(C(=O)CN)C3(C)C)CC(C)(C)C1 (stereo not shown) [Compound 666]	> 10	4.97
CC1(C)c2nc(-c3ccc(F)cc3)c(N[C@@H]3C[C@H]4CC[C@@H]3C4)n2CCN1C(=O)CN [Compound 667]	0.104	0.082
CN(C)C1CCN(c2c(-c3ccc(F)cc3)nc3n2CCN(C(=O)CN)C3(C)C)C1 (stereo not shown) [Compound 668]	3.43	> 10
CC1(C)c2nc(-c3ccc(F)cc3)c(N3CCC(N4CCCCC4)CC3)n2CCN1C(=O)CN [Compound 669]	3.98	> 10
CC1(C)c2nc(-c3ccc(F)cc3)c(NC3CCCC3)n2CCN1C(=O)CN [Compound 670]	0.402	0.711
CC1(C)c2nc(-c3ccc(F)cc3)c(NC3CCC3)n2CCN1C(=O)CN [Compound 671]	1.29	1.09
CC1(C)c2nc(-c3ccc(F)cc3)c(NC3CCOCC3)n2CCN1C(=O)CN [Compound 672]	9.84	7.14
CN1CCC(N2CCN(c3c(-c4ccc(F)cc4)nc4n3CCN(C(=O)CN)C4(C)C)CC2)CC1 [Compound 673]	8.87	> 8.72
CCC(C)CNc1c(-c2ccc(F)cc2)nc2n1CCN(C(=O)CN)C2(C)C (stereo not shown) [Compound 674]	6.28	6.31
Cc1ccc(Nc2c(-c3ccc(F)cc3)nc3n2CC(=O)N(CCN(C)C)C3(C)C)cc1F [Compound 681]	0.272	0.196

SMILES	EC50 (3D7 P. falciparum strain) [µM]	EC50 (W2 strain) [µM]
Cc1ccc(Nc2c(-c3ccc(F)cc3)nc3n2CC(=O)N(CCN(C)C)C3(C)C)cc1Cl [Compound 682]	0.124	0.111
Cc1cc(Nc2c(-c3ccc(F)cc3)nc3n2CC(=O)N(CCN(C)C)C3(C)C)ccc1F [Compound 683]	0.125	0.112
Cc1cc(Nc2c(-c3ccc(F)cc3)nc3n2CC(=O)N(CCN(C)C)C3(C)C)ccc1Cl [Compound 684]	0.03	0.017
CN(C)CCN1C(=O)Cn2c(nc(-c3ccc(F)cc3)c2Nc2ccc(Cl)c(F)c2)C1(C)C [Compound 685]	0.173	0.131
Cc1cc(Nc2c(-c3cccc(F)c3)nc3n2CC(=O)N(CC2CNC2)C3(C)C)ccc1F [Compound 686]	0.628	0.524
Cc1cc(Nc2c(-c3cccc(F)c3)nc3n2CC(=O)N(CCCN)C3(C)C)ccc1F [Compound 689]	0.512	0.295
Cc1cc(Nc2c(-c3cccc(F)c3)nc3n2CC(=O)N(CCCO)C3(C)C)ccc1F [Compound 690]	0.866	0.76
COCCCN1C(=O)Cn2c(nc(-c3cccc(F)c3)c2Nc2ccc(F)c(C)c2)C1(C)C [Compound 691]	0.068	0.06
Cc1cc(Nc2c(-c3cccc(F)c3)nc3n2CC(=O)N(CCCC(=O)O)C3(C)C)ccc1F [Compound 692, 4-(3-(4-fluoro-3-methylphenylamino)-2-(3-fluorophenyl)-8,8-dimethyl-6-oxo-5,6-dihydroimidazo[1,2-a]pyrazin-7(8H)-yl)butanoic acid]	6.45	5.34
CC1(C)c2nc(-c3ccc(F)cc3)c(Cc3ccc(F)cc3)n2CCN1C(=O)CN [Compound 693]	0.008	0.008
Cc1ccc(Cc2c(-c3ccc(F)cc3)nc3n2CCN(C(=O)CN)C3(C)C)cc1 [Compound 694]	0.011	0.007
COc1ccc(Cc2c(-c3ccc(F)cc3)nc3n2CCN(C(=O)CN)C3(C)C)cc1 [Compound 695, 2-amino-1-(2-(4-fluorophenyl)-3-(4-methoxybenzyl)-8,8-dimethyl-5,6-dihydroimidazol[1,2-a]pyrazin-7(8H)-yl)ethanone]	0.017	0.019
CC1(C)c2nc(-c3ccc(F)cc3)c(Cc3ccc(F)c(F)c3)n2CCN1C(=O)CN [Compound 696]	0.02	0.022
CC(C)(N)C(=O)N1CCn2c(nc(-c3ccc(F)cc3)c2Cc2ccc(F)cc2)C1 [Compound 697]	0.362	0.256
CN1CCN(Cc2c(-c3ccc(F)cc3)nc3n2CCN(C(=O)CN)C3(C)C)CC1 [Compound 698]	8.81	9.02
Cc1ccc(CC(N)C(=O)N2CCn3cc(-c4ccc(F)cc4)nc3C2(C)C)cc1 (stereo not shown) [Compound 700, 2-amino-1-(2-(4-fluorophenyl)-8,8-dimethyl-5,6-dihydroimidazo[1,2-a]pyrazin-7(8H)-yl)-3-p-tolylpropan-1-one]	> 9.51	7
CC1(C)c2nc(-c3ccc(F)cc3)cn2CCN1C(=O)C(N)CCc1cccc(F)c1 (stereo not shown) [Compound 701]	8.27	7.35
CC1(C)c2nc(-c3ccc(F)cc3)cn2CCN1C(=O)C(N)CCc1ccc(Cl)cc1 (stereo not shown) [Compound 702]	6.03	5.85
CC1(C)c2nc(-c3ccc(F)cc3)cn2CCN1C(=O)C(N)CC1CCCCC1 (stereo not shown) [Compound 703]	8.57	8.29

SMILES	EC50 (3D7 P. falciparum strain) [µM]	EC50 (W2 strain) [µM]
Cc1ccc(-c2c(-c3ccc(F)cc3)nc3n2CCN(C(=O)CN)C3(C)C)cc1 [Compound 704, 2-amino-1-(2-(4-fluorophenyl)-8,8-dimethyl-3-p-tolyl-5,6-dihydroimidazo-[1,2-a]pyrazin-7(8H)-yl)ethanone]	0.236	0.232
CC1(C)c2nc(-c3ccc(F)cc3)c(-c3ccc(F)cc3)n2CCN1C(=O)CN [Compound 705]	1.24	0.76
CC1(C)c2nc(-c3ccc(F)cc3)c(-c3ccc(F)c(Cl)c3)n2CCN1C(=O)CN [Compound 706]	0.252	0.237
CC1(C)NCCn2c1nc(-c1ccc(F)cc1)c2C(=O)Nc1ccc(F)cc1 [Compound 707, N,2-bis(4-fluorophenyl)-8,8-dimethyl-5,6,7,8-tetrahydroimidazo[1,2-a]pyrazine-3-carboxamide]	6.54	> 10
CC1(C)c2nc(-c3ccc(F)cc3)c(C(=O)Nc3ccc(F)cc3)n2CCN1C(=O)CN [Compound 708]	0.809	1.13
CC1(C)c2nc(-c3ccc(F)cc3)c(Oc3ccc(F)cc3)n2CCN1C(=O)CN [Compound 709, 2-amino-1-(3-(4-fluorophenoxy)-2-(4-fluorophenyl)-8,8-dimethyl-5,6-dihydroimidazo[1,2-a]pyrazin-7(8H)-yl)ethanone]	0.003	0.008
CC1(C)c2nc(-c3ccc(F)cc3)c(Sc3cccc(F)c3)n2CCN1C(=O)CN [Compound 714]	0.007	0.004
CC1(C)c2nc(-c3ccc(F)cc3)c(Sc3ccc(F)cc3)n2CCN1C(=O)CN [Compound 715]	0.006	0.006
CC1(C)c2nc(-c3ccc(F)cc3)c(Sc3ccc(Cl)cc3)n2CCN1C(=O)CN [Compound 716]	0.002	0.001
Cc1cc(C)cc(Sc2c(-c3ccc(F)cc3)nc3n2CCN(C(=O)CN)C3(C)C)c1 [Compound 717]	0.026	0.016
CC1(C)c2nc(-c3ccc(F)cc3)c(Sc3ccc(F)c(F)c3)n2CCN1C(=O)CN [Compound 718]	0.008	0.006
CC1(C)c2nc(-c3ccc(F)cc3)c([S+]([O-])c3cccc(F)c3)n2CCN1C(=O)CN (stereo not shown) [Compound 719]	0.481	0.361
CC1(C)c2nc(-c3ccc(F)cc3)c([S+]([O-])c3ccc(F)cc3)n2CCN1C(=O)CN (stereo not shown) [Compound 720]	0.07	0.069
Cc1cc(C)cc([S+]([O-])c2c(-c3ccc(F)cc3)nc3n2CCN(C(=O)CN)C3(C)C)c1 (stereo not shown) [Compound 722]	0.381	0.281
CC1(C)c2nc(-c3ccc(F)cc3)c([S+]([O-])c3ccc(F)c(F)c3)n2CCN1C(=O)CN (stereo not shown) [Compound 723]	0.089	0.068
CC1(C)c2nc(-c3ccc(F)cc3)c([S+]([O-])c3ccc(Cl)cc3)n2CCN1C(=O)CN (stereo not shown) [Compound 724]	0.509	0.287
CC1(C)c2nc(-c3ccc(F)cc3)c(Nc3ccc(F)cc3)n2CCN1C(=O)CNC(=O)CCc1ccccc1 [Compound 726]	1.93	1.48
CC1(C)c2nc(-c3ccc(F)cc3)c(Nc3ccc(F)cc3)n2CCN1C(=O)CNC(=O)CCc1ccc2oc3ccccc3c2c1 [Compound 727]	6.56	2.97
